{"source": "patent US6399325B1", "about": "“DNA encoding a galanin receptor” (priority 1994, dated 2002)", "test_system": "mock transformed CHO cells", "experiment": "cAMP assay in mock transformed CHO cells", "type": "cell-based", "details": "CHO transformants with the plasmid vector without cDNA insert; forskolin 10 μM, porcine galanin 0.1 μM; 37° C. for 30 min", "protocol": "CHO-MGR20 or mock transformed CHO cells were incubated with forskolin (10 μM) and porcine galanin (0.1 μM) at 37° C. for 30 min. The reaction was terminated by extracting the cells with ice-cold ethanol. The amounts of intracellular cAMP were quantitated by EIA. Values indicated are mean±S.E.M. in triplicate assays.\nThe CHO cells were seeded at 2.0×10^5 cells/well in 24-well tissue culture plates and cultured for two days. The cells were washed two times with HBSS containing 0.1% BSA and 1 mM IBMX, and then the same buffer with experimental agents were added to the wells. After incubation at 37° C. for 30 min, the media were discarded and intracellular cAMP was extracted with ice-cold ethanol. The aliquots of extracts were evaporated and the amounts of cAMP were quantitated by a cAMP EIA system (Amersham) as described by the manufacturer.\nGalanin receptor-mediated inhibition of forskolin-stimulated cAMP production was observed. CHO-MGR20 or mock transformed CHO cells were incubated with forskolin (10 μM) and porcine galanin (0.1 μM) at 37° C. for 30 min. The reaction was terminated by extracting the cells with ice-cold ethanol. The amounts of intracellular cAMP were quantitated by EIA. Values indicated are mean±S.E.M. in triplicate assays.", "data": [{"substance": "Porcine Galanin", "values": [{"measurement": "forskolin-stimulated cAMP accumulation", "result": "not inhibited"}]}]}
